Data taken from patent publication US20230255954A1, “INTERLEUKIN 33 (IL-33) INHIBITION FOR TREATMENT OF CANCER, FIBROSIS AND INFLAMMATION” (The General Hospital Corporation, priority 2020, published 2023).

Columns and labels:
[1] = tested on: mouse Il33 gene promoter (IL-33 promoter-luci reporter); assay: IL-33 promoter luciferase screen of FDA-approved Drug Library; assay type: cell-based; settings: 10 μM, 24 hours; IL-33 promoter-luci vs control-luci stable Pam212 cells; 1056 molecules tested
Protocol: Pam212 cells were grown at 37° C. in DMEM (Thermo Fisher Scientific, Waltham, Mass., catalog no. 11995065) supplemented with 10% fetal bovine serum (Thermo Fisher Scientific, catalog no. 26140079), 1× penicillin-streptomycin-glutamine (Thermo Fisher Scientific, catalog no. 10378016), 1×MEM non-essential amino acids solution (Thermo Fisher Scientific, catalog no. 11140050), 1×HEPES (Thermo Fisher Scientific, catalog no. 15630080) and 0.1% 2-Mercaptoethanol (Thermo Fisher Scientific, catalog no. 21985023). PyMT cell lines (derived from a primary breast tumor of MMTV-PyMrg mouse on a C57BL/6 background) were grown at 37° C. in RPMI Medium 1640 (Thermo Fisher Scientific, catalog no. 11875093) supplemented with 10% fetal bovine serum, 1× penicillin-streptomycin-glutamine and 0.1% 2-Mercaptoethanol. IL-33 promoter-luci vector (GeneCopoeia, Rockville, Md., catalog no. MPRM3494-PG02) or Control-luci vector (deletion form of IL-33 promoter region from IL-33 promoter-luci vector) or Poly (I:C) (Invivogen, San Diego, Calif., catalog no. tlrl-pic) in Pam212 cells were performed using Lipofectamine 2000 (Thermo Fisher Scientific, catalog no. 11668019) according to the manufacturer's instructions.
After transfection of plasmids in Pam212 cells, cells were incubated with 3 μg/ml of puromycin (Invivogen, San Diego, Calif., catalog no. ant-pr-1) for positive transfected cell selection. After following 2 days, medium was changed new puromycin contained medium for further selection. After following 2 days, cells were moved to new plate with puromycin contained medium. Puromycin selection was repeated for five times more.
1000 stable cells were seed to 384 wells (Corning, Glendale, Ariz., catalog no. 3570) and each of plate was incubated 24 hours. Following day, 10 μM of FDA-approved Drug Library compounds (Selleckchem, Houston, Tex., catalog no. L1300) were added to each well. After 24 hours, 5 μL of luciferase buffer from Pierce Gaussia luciferase glow assay kit (Thermo Fisher Scientific, Waltham, Mass., catalog no. 16160) were added each well and incubated for 5 min. Each plate was read and measured with luminescence by EnVision 2014 plate reader (Perkin Elmer, Waltham, Mass., catalog no. 2014 EnVision).
To make small molecule screening platform, we generated both IL-33 promoter-luci and control-luci over-expressed stable epithelial cell line (Pam212) by multiple puromycin selection strategy (FIG. 10A). To find molecules that can inhibit IL-33 expression, we tested 1056 FDA-approved small molecules against our reporter cell line. […] To find bona fide inhibitors of IL-33, we checked RNA level of Il33 by qPCR in cells treated with inducer of IL-33 expression, Poly (I:C). After cells were treated by Poly (I:C), RNA level of Il33 was increased compared to carrier group. However, Il33 RNA level was decreased by pitavastatin and tropisetron in Poly I:C-treated cells (FIGS. 10C and D). […] Finally, endogenous IL-33 protein level was decreased after treatment with pitavastatin in a dose-dependent manner (FIG. 10F). Therefore, pitavastatin is a small inhibitor molecule of IL-33.

[2] = tested on: endogenous Il33 expression in PyMT breast cancer cell line; assay: Endogenous Il33 RNA in PyMT breast cancer cell line; assay type: cell-based, mouse
Protocol: Pam212 cells were grown at 37° C. in DMEM (Thermo Fisher Scientific, Waltham, Mass., catalog no. 11995065) supplemented with 10% fetal bovine serum (Thermo Fisher Scientific, catalog no. 26140079), 1× penicillin-streptomycin-glutamine (Thermo Fisher Scientific, catalog no. 10378016), 1×MEM non-essential amino acids solution (Thermo Fisher Scientific, catalog no. 11140050), 1×HEPES (Thermo Fisher Scientific, catalog no. 15630080) and 0.1% 2-Mercaptoethanol (Thermo Fisher Scientific, catalog no. 21985023). […]
Mouse dorsal skin samples were homogenized and lysed in RLT lysis solution (QIAGEN, catalog no. 79216)/0.1% MeOH using Mini-BeadBeater-8 (BioSpec Products, Inc., Bartlesville, Okla.). Total RNA was extracted using an RNeasy micro kit and quantified using NanoDrop ND-1100 (NanoDrop Technologies, Wilmington, Del.). cDNA samples were synthesized from 1 μg of total RNA using Invitrogen SuperScripts III Reverse Transcriptase (Thermo Fisher Scientific, catalog no. 18080085). Expression levels of all cDNA samples were determined with LightCycler 480 system (Roche Molecular Systems Inc., Pleasanton, Calif.) using TaqMan Universal Master Mix II (Thermo Fisher Scientific, catalog no. 44-400-40). […]

[3] = tested on: Caerulein-injected mouse pancreas; assay: Caerulein chronic pancreatitis model with pitavastatin; assay type: in vivo
Protocol: Mice were weighed and injected with 50 μg/kg caerulein (BACHEM, Torrance, Calif., catalog no. 4030451) in 100 μL of PBS intraperitoneally every hour for 6 hours, three days per week for 3 weeks and mice were harvested.
1 mM of pitavastatin was dissolved in DMSO for stock, and then 100 uM was dissolved in PBS with caerulein for mice injection. Mice were injected with caerulein.
Tissue samples were collected and fixed in 4% paraformaldehyde (Millipore Sigma, catalog no. P6148) overnight at 4° C. Next, tissues were dehydrated in ethanol, processed and embedded in paraffin. 5 μm sections paraffin-embedded tissues were placed on slides, deparaffinized and stained with H&E or toluidine blue (for mast cell detection). For immunohistochemistry, antigen retrieval was performed in 500 μL of antigen unmasking solution (VECTOR Laboratories, Burlingame, Calif., catalog no. H3300) diluted in 50 mL water using Cuisinart pressure cooker for 20 min at high pressure. Slides were washed three times for three minutes each in 1×TBS with 0.025% Triton X-100. Sections were blocked with 1% bovine serum albumin (Thermo Fisher Scientific, catalog no. BP1600) and 5% goat serum (Millipore Sigma, catalog no. G9023) for 1 hour. Slides were stained overnight at 4° C. with a primary antibody diluted in TBS containing 1% BSA (Appendix Table S2). […]

- IL-33/Control luminescence ratio (inhibitory effect against IL-33 reporter) [1]: small molecule candidates
Compound: O=C(O)C[C@H](O)C[C@H](O)/C=C/c1c(C2CC2)nc2ccccc2c1-c1ccc(F)cc1 [pitavastatin]
- endogenous Il33 RNA level [2]: inhibitory effect
- severity of pancreatitis ([3]; 100 uM pitavastatin in PBS injected with caerulein, vs severe pancreatitis in caerulein plus carrier): mild pancreatitis
- inflammatory cell infiltrates in pancreas (H&E) ([3]; Caerulein-injected mouse pancreas with or without pitavastatin): reduction
